Patent publication US10183919B2 (priority 2014, dated 2019)

Each compound was assayed against T1, Human MOR (Homo sapiens, UniProt P35372) (assay: cell-based). Conditions: not given.
T1 construct: expressed in transfected cells; host or cells: HEK-293T
Description: (§1) Transfection. Human or mouse MOR cDNA was transfected alongside GαoB with RLuc8 inserted at position 91 (GαoB-RLuc8), Gβ1 (β1), and Gγ2 fused to the full-length mVenus at its N terminus (mVenus-γ2) into HEK-293T cells (5×10^6 cells/plate) in 10-cm dishes using PEI (Polysciences Inc.; Warrington, Pa.) in a 1:1 ratio diluted in Opti-MEM (Life Technologies Corp.; Grand Island, N.Y.) to assay for G protein activation as described previously (Rives, M.-L. et al. J. Biol. Chem. 2012, 287, 27050-4; Negri, A.; Rives, M.-L.; Caspers, M. J. et al. J. Chem. Inf. Model. 2013, 53, 521-526). Cells were maintained in the Dulbecco's Modified Eagle Medium (high glucose #11965; Life Technologies) supplemented with 10% FBS (Premium Select, Atlanta Biologicals; Atlanta, Ga.) and 100 U/mL penicillin and 100 μg/mL streptomycin (#15140, Life Technologies). After 24 hours the media was changed, and the experiment was performed 24 hours later (48 hours after transfection).
(§2) BRET. Transfected cells were dissociated and resuspended in phosphate-buffered saline (PBS). Approximately 200,000 cells/well were added to a black-framed, white well 96-well plate (#60050; Perkin Elmer; Waltham, Mass.). The microplate was centrifuged and the cells were resuspended in PBS. Then 5 μM of the luciferase substrate coelenterazine H was added to each well for 5 minutes. Following coelenterazine H addition, ligands were added and the BRET signal was measured at 5 minutes on a PHERAstar FS plate reader. Quantification of the BRET signal required calculating the ratio of the light emitted by the energy acceptor, mVenus (510-540 nm), over the light emitted by the energy donor, RLuc8 (485 nm). […] Dose response curves were fit using three-parameter logistics equation in GraphPad Prism 6.

T1 sequence (P35372 whole entry): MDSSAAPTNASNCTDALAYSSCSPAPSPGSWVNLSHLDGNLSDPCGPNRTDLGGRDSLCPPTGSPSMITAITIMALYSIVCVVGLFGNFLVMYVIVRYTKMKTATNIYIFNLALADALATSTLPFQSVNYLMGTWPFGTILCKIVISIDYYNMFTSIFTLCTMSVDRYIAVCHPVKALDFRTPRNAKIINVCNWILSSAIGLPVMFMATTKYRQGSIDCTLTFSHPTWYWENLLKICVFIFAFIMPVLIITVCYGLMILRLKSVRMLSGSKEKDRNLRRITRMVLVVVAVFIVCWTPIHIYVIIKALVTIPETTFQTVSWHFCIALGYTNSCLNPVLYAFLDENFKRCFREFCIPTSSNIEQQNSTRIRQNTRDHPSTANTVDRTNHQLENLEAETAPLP

Compound | EC50 [µM]
CN1c2ccccc2C(NCCCCC(=O)O)c2ccc(Cl)cc2S1(=O)=O (stereo not drawn) [compound 18, 5-((3-Chloro-6-methyl-5,5-dioxido-6,11-dihydrodibenzo[c,f][1,2]thiazepin-11-yl)amino)pentanoic acid] | < 10
CN1c2ccccc2C(NCCCO)c2ccc(Cl)cc2S1(=O)=O (stereo not drawn) [compound 83, 3-Chloro-11-((3-hydroxypropyl)amino)-6-methyl-6,11-dihydrodibenzo[c,f][1,2] iazepine 5,5-dioxide] | 1.81
CC(=O)OCCCCCCNC1c2ccccc2N(C)S(=O)(=O)c2cc(Cl)ccc21 (stereo not drawn) [compound 13, 6-((3-Chloro-6-methyl-5,5-dioxido-6,11-dihydrodibenzo[c,f][1,2]thiazepin-11-yl)amino)hexyl acetate] | < 10
COCCCCCNC1c2ccccc2N(C)S(=O)(=O)c2cc(Cl)ccc21 (stereo not drawn) [compound 32, 3-Chloro-11-((5-methoxypentyl)amino)-6-methyl-6,11-dihydrodibenzo [c,f][1,2]thiazepine 5,5-dioxide] | 0.563 ± 0.247
CN1c2ccccc2C(NCCCC(F)(F)F)c2ccc(Cl)cc2S1(=O)=O (stereo not drawn) [compound 28, 3-Chloro-6-methyl-11-((4,4,4-trifluorobutyl)amino)-6,11-dihydrodibenzo [c,f][1,2]thiazepine 5,5-dioxide] | < 10
COCCCNC1c2cc(Br)ccc2N(C)S(=O)(=O)c2cc(Cl)ccc21 (stereo not drawn) [compound 11] | < 10
COCCCNC1c2ccccc2N(C)S(=O)(=O)c2cc(OC(C)=O)ccc21 (stereo not drawn) [compound 59, 11-((3-Methoxypropyl)amino)-6-methyl-5,5-dioxido-6,11-dihydrodibenzo[c,f][1,2]thiazepin-3-yl acetate] | < 10
CCOC(=O)CCCCCCNC1c2ccccc2N(C)S(=O)(=O)c2cc(F)ccc21 (stereo not drawn) [compound 41, Ethyl 7-((3-fluoro-6-methyl-5,5-dioxido-6,11-dihydrodibenzo[c,f][1,2]thiazepin-11-yl)amino)heptanoate] | 2.04 ± 0.334
COCCCNC1c2ccccc2N(C)S(=O)(=O)c2cc(F)ccc21 (stereo not drawn) [compound 40, 3-Fluoro-11-((3-methoxypropyl)amino)-6-methyl-6,11-dihydrodibenzo[c,f] [1,2]thiazepine 5,5-dioxide] | 5.53 ± 0.25
COCCOCCNC1c2ccccc2N(C)S(=O)(=O)c2cc(Cl)ccc21 (stereo not drawn) [compound 36, 3-Chloro-11-((2-(2-methoxyethoxy)ethyl)amino)-6-methyl-6,11-dihydrodibenzo[c,f][1,2]thiazepine 5,5-dioxide] | < 10
COCCCNC1c2ccc(Cl)cc2N(C)S(=O)(=O)c2ccccc21 (stereo not drawn) [compound 69, 8-Chloro-11-((3-methoxypropyl)amino)-6-methyl-6,11-dihydrodibenzo [c,f][1,2]thiazepine 5,5-dioxide] | < 20
COCCCNC1c2ccccc2N(C)S(=O)(=O)c2cc(SC(C)C)ccc21 (stereo not drawn) [compound 63, 3-(Isopropylthio)-11-((3-methoxypropyl)amino)-6-methyl-6,11-dihydrodibenzo[c,f][1,2]thiazepine 5,5-dioxide] | < 10
CCOCCCNC1c2ccc(Cl)cc2S(=O)(=O)N(C)c2ccsc21 (stereo not drawn) [compound 78, 7-Chloro-10-((-ethoxypropyl)amino)-4-methyl-4,10-dihydrobenzo[f]thieno[3,2-c][1,2]thiazepine 5,5-dioxide] | < 10
COCCCCNC1c2ccccc2N(C)S(=O)(=O)c2cc(Cl)ccc21 (stereo not drawn) [compound 39, 3-Chloro-11-((4-methoxybutyl)amino)-6-methyl-6,11-dihydrodibenzo [c,f][1,2]thiazepine 5,5-dioxide] | < 10
CN1c2ccccc2C(NCCCC2OCCCO2)c2ccc(Cl)cc2S1(=O)=O (stereo not drawn) [compound 31, 11-((3-(1,3-Dioxan-2-yl)propyl)amino)-3-chloro-6-methyl-6,11-dihydrodibenzo[c,f][1,2]thiazepine 5,5-dioxide] | < 10
COCCCNC1c2ccccc2N(C)S(=O)(=O)c2cc([S+](C)[O-])ccc21 (mixture of isomers) [compound 55, 11-((3-Methoxypropyl)amino)-6-methyl-3-(methylsulfinyl)-6,11-dihydrodibenzo[c,f][1,2]thiazepine 5,5-dioxide] | < 20

Compound | EC50 [µM]
CCCCCCCNC1c2ccccc2N(C)S(=O)(=O)c2cc(Cl)ccc21 (stereo not drawn) [compound 26, 3-Chloro-11-(heptylamino)-6-methyl-6,11-dihydrodibenzo [c,f][1,2]thiazepine 5,5-dioxide] | < 10
CN1c2ccccc2C(NCCOCCO)c2ccc(Cl)cc2S1(=O)=O (stereo not drawn) [compound 25, 3-Chloro-11-((2-(2-hydroxyethoxy)ethyl)amino)-6-methyl-6,11-dihydrodibenzo[c,f][1,2]thiazepine 5,5-dioxide] | 8.59 ± 0.5
CN1c2ccccc2C(NCCCCCCC(=O)NCCO)c2ccc(Cl)cc2S1(=O)=O (stereo not drawn) [compound 57, 7-((3-Chloro-6-methyl-5,5-dioxido-6,11-dihydrodibenzo [c,f][1,2]thiazepin-11-yl)amino)-N-(2-hydroxyethyl) heptanamide] | < 10
CN1CCCC1CCNC1c2ccccc2N(C)S(=O)(=O)c2cc(Cl)ccc21 (stereo not drawn) [compound 47] | < 20
COCC(C)CNC1c2ccccc2N(C)S(=O)(=O)c2cc(Cl)ccc21 (mixture of isomers) [compound 68, 3-Chloro-11-((3-methoxy-2-methylpropyl)amino)-6-methyl-6,11-dihydrodibenzo[c,f][1,2]thiazepine 5,5-dioxide] | < 10
CSCCCNC1c2ccccc2N(C)S(=O)(=O)c2cc(Cl)ccc21 (stereo not drawn) [compound 33, 3-Chloro-6-methyl-11-((3-(methylthio)propyl)amino)-6,11-dihydrodibenzo[c,f][1,2]thiazepine 5,5-dioxide] | < 10
CCN1c2ccccc2C(NCCCOC)c2ccccc2S1(=O)=O (stereo not drawn) [compound 65, 6-Ethyl-11-((3-methoxpropyl)amino)-6,11-dihydrodibenzo[c,f][1,2]thiazepine 5,5-dioxide] | > 20
Cc1ccc2c(c1)S(=O)(=O)N(C)c1ccccc1C2NCCCCCCC(=O)O (stereo not drawn) [compound 16] | < 10
CCOC(=O)CCCCCCNC1c2ccccc2N(C)S(=O)(=O)c2cc(Br)ccc21 (stereo not drawn) [compound 81, Ethyl 7-((3-bromo-6-methyl-5,5-dioxido-6,11-dihydrodibenzo [c,f] [1,2]thiazepin-11-yl)amino)heptanoate] | 0.573
CCOCCCNC1c2ccc(Br)cc2S(=O)(=O)N(C)c2ccsc21 (stereo not drawn) [compound 73, 7-Bromo-10-((3-ethoxypropyl)amino)-4-methyl-4,10-dihydrobenzo[f]thieno[3,2-c][1,2]thiazepine 5,5-dioxide] | < 10
CCOC(CCCNC1c2ccccc2N(C)S(=O)(=O)c2cc(Cl)ccc21)OCC (stereo not drawn) [compound 24, 3-Chloro-11-((4,4-diethoxybutyl)amino)-6-methyl-6,11-dihydrodibenzo[c,f][1,2]thiazepine 5,5-dioxide] | < 10
CCOC(=O)CCCCCCNC1c2ccccc2N(C)S(=O)(=O)c2cc(Cl)ccc21 (stereo not drawn) [compound 34, Ethyl 7-((3-chloro-6-methyl-5,5-dioxido-6,11-dihydrodibenzo[c,f][1,2]thiazepin-11-yl)amino)heptanoate] | 0.657 ± 0.366
COCCCNC1c2ccccc2S(=O)(=O)N(C)c2c(OC)cccc21 (stereo not drawn) [compound 50] | < 20
COCCCNC1c2ccccc2N(C)S(=O)(=O)c2cc(-c3ccccc3)ccc21 (stereo not drawn) [compound 56, 11-((3-Methoxypropyl)amino)-6-methyl-3-phenyl-6,11-dihydrodibenzo[c,f][1,2]thiazepine 5,5-dioxide] | < 10
CCOC(=O)CCCCCCNC1c2ccc(Cl)cc2N(C)S(=O)(=O)c2ccccc21 (stereo not drawn) [compound 70, Ethyl 7-((8chloro-6-methyl-5,5-dioxido-6,11-dihydrodibenzo[c,f][1,2]thiazepin-11-yl)amino)heptanoate] | < 10

Same assay, conditions: BRET G protein activation, HEK-293T; mean ± SEM of independent trials; read-out: EC50 Human MOR

Compound | EC50 [µM]
COCCCNC1c2ccccc2N(C)S(=O)(=O)c2cc(OCc3ccccc3)ccc21 (stereo not drawn) [compound 75, 3-(Benzyloxy)-11-((3-methoxypropyl)amino)-6-methyl-6,11-dihydrodibenzo[c,f][1,2]thiazepine 5,5-dioxide] | > 20
CCOCCCNC1c2ccccc2N(C)S(=O)(=O)c2cc(Cl)ccc21 (stereo not drawn) [compound 37, 3-Chloro-11-((3-ethoxypropyl)amino)-6-methyl-6,11-dihydrodibenzo [c,f][1,2]thiazepine 5,5-dioxide] | 0.893 ± 0.147
7-((3-Iodo-6-methyl-5,5-dioxido-6,11-dihydrodibenzo [c,f][1,2]thiazepin-11-yl)amino)heptanoic acid hydrochloride salt [compound 84] | 0.04
CCOCCCNC1c2ccccc2N(C)S(=O)(=O)c2cc(Br)ccc21 (stereo not drawn) [compound 71, 3-Bromo-11-((3-ethoxypropyl)amino)-6-methyl-6,11-dihydrodibenzo [c,f][1,2]thiazepine 5,5-dioxide] | 0.222 ± 0.078

These compounds were tested against T2, Mouse MOR (Mus musculus, UniProt P42866) (assay: BRET G protein activation assay, HEK-293T cells transfected with mouse MOR). Conditions: not given.
T2 construct: expressed in transfected cells; host or cells: HEK-293T
Type: cell-based
Description: as §1, §2

T2 sequence (P42866 whole entry): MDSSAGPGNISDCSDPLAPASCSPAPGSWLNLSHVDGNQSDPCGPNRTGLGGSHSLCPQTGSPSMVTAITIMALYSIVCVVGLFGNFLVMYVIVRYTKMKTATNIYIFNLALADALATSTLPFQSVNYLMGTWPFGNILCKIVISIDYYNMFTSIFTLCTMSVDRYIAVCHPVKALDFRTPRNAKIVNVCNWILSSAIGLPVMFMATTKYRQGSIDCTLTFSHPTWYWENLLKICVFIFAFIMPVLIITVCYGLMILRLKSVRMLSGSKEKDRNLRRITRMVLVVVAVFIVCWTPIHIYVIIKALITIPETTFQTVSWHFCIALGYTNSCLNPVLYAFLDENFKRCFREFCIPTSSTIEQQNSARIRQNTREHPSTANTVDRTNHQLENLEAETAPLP

Compound | EC50 [µM]
CN1c2ccccc2C(NCCCCC(=O)O)c2ccc(Cl)cc2S1(=O)=O (stereo not drawn) [compound 18, 5-((3-Chloro-6-methyl-5,5-dioxido-6,11-dihydrodibenzo[c,f][1,2]thiazepin-11-yl)amino)pentanoic acid] | < 10
